Test results published in patent US6655081B1, “Mushrooms” (DSM N.V., priority 1999, dated 2003).

Key:
[1] = test system: mycelium of most mushroom species, e.g. A. bisporus; conditions: cited from earlier work
Mycogone pernicosa = assay: Mould growth on Potato Dextrose Agar plates containing natamycin; assay type: cell-based; conditions: 5 days at 25° C.
Description: (§1) Each of these organisms were field isolates.
(§2) Potato Dextrose Agar plates containing 0, 10 and 20 ppm of natamycin and mould suspensions were prepared using well known methods.
(§3) The freshly prepared suspensions were dilluted to final concentrations of 10^4 Colony Forming Units/ml.
(§4) 10 μl of each mould suspensions was inoculated in a spot on the agar plates (in duplo). The plates were incubated for 5 days at 25° C.
(§5) After 5 days of incubation on the control plates containing no natamycin, clear colonies were formed.

Trichoderma harzianum = assay: as above; assay type: cell-based; conditions: 5 days at 25° C.
Description: as §1, §2, §3, §4, §5

Verticillium fungicola = assay: as above; assay type: cell-based; conditions: 5 days at 25° C.
Description: as §1, §2, §3, §4, §5

Dactylium dendroides = assay: as above; assay type: cell-based; conditions: 5 days at 25° C.
Description: as §1, §2, §3, §4, §5

most fungi = conditions: cited from earlier work
Agaricus bisporus = assay type: in vivo; conditions: after 3 flushes
Description: This example describes the effect of natamycin on the yield of mushrooms. Tubs having an area of 0.26 m^2 were filled with commercially prepared pasteurized mushroom substrate inoculated with spawn (seed) of the commercial button mushroom Agaricus bisporus. Following colonization by the mushroom fungus, the substrate was covered by a layer of peat moss, mixed with limestone (the casing layer) and further incubated under well known standard conditions until mycelial strands were visible on the surface. Fruiting bodies were initiated by manipulating the external environment using methods well known in the industry. 9 tubs were treated five days prior to the first flush by applying an aqueous solution containing 10 ppm of natamycin, as a control 9 tubs were treated the same way however without natamycin. The aqueous solution was applied at a rate of 1.84 liter per square meter and the mushroom beds were allowed to continue growing.

Compound: C[C@@H]1C/C=C/C=C/C=C/C=C/[C@H](O[C@@H]2O[C@H](C)[C@@H](O)[C@H](N)[C@@H]2O)C[C@@H]2O[C@](O)(C[C@@H](O)C[C@H]3O[C@@H]3/C=C/C(=O)O1)C[C@H](O)[C@H]2C(=O)O [natamycin]
- inhibition of mushroom mycelium [1]: inhibited
- growth on agar plate (Mycogone pernicosa; 10 ppm natamycin): no growth
- growth on agar plate (Mycogone pernicosa; 20 ppm natamycin): no growth
- growth on agar plate (Trichoderma harzianum; 10 ppm natamycin): no growth
- growth on agar plate (Trichoderma harzianum; 20 ppm natamycin): no growth
- growth on agar plate (Verticillium fungicola; 10 ppm natamycin): only some slight growth
- growth on agar plate (Verticillium fungicola; 20 ppm natamycin): no growth
- growth on agar plate (Dactylium dendroides; 10 ppm natamycin): no growth
- growth on agar plate (Dactylium dendroides; 20 ppm natamycin): no growth
- MIC (Minimal Inhibitory Concentration) (most fungi): less than 20 ppm
- average yield (Agaricus bisporus; 10 ppm natamycin aqueous solution, 1.84 liter per square meter, five days prior to first flush, 9 tubs): 3.94 pounds per square feet
- yield compared to the untreated control (Agaricus bisporus; 10 ppm natamycin): statistically significant yield increase
